One data set relates to mice. The experiment in a line: In vivo delivery of FLuc-mRNA lipid nanoparticles in mice, in vivo imaging (IVIS). In outline:
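Mice (n=3) received about 75 μL FLuc-mRNA LNP per mouse intramuscularly (rectus femoris), intravenously (tail vein), intraperitoneally or subcutaneously (back). After injection, D-luciferin (200 μL, 15 mg/mL) was given i.p. 10-15 min before IVIS imaging.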

A short description of data set [1]: Particle size and PDI of nucleic acid lipid nanoparticle preparations by dynamic light scattering. It is filed as physicochemical. In outline:
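Size read by DLS after diluting the LNP preparation (approx. 0.04 mg/mL mRNA) in ultrapure water with gentle pipette mixing. The same sample, recovered and diluted further with water, was then used for zeta potential measurement.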

The nature of data set [2]: Potential characterization of nucleic acid lipid nanoparticle preparations. It is filed as physicochemical. The protocol: 20 μL of the nucleic acid lipid nanoparticle solution (containing about 0.04 mg/mL mRNA) was taken and added with 780 μL of ultrapure water, used a pipette tip to gently blow and mix, and the potential of the nanopreparation was detected by Malvern particle sizer (model ZEN3700).
27.5 μL nucleic acid lipid nanoparticle solution (containing about 0.04 mg/mL mRNA) was taken and added with 200 μL ultrapure water. A pipette tip was used to gently blow the sample and mix well. The particle size of the nanopreparation was detected by Malvern Dynamic Light Scattering Instrument (Malvern Instruments Ltd., ZEN3700, UK). After the detection, the sample was recovered to an EP tube, and 600 μL of ultrapure water was added, gently blown with a pipette tip, and the potential of the nanopreparation was measured by a Malvern particle size meter.

[3] abbreviates: IM, DMG-PEG2000:DSPC:Chol:compound 1.40:11.15:38.95:48.50, N/P 30, Fluc-mRNA.
Setting [4] is: IV, body, DMG-PEG2000:DSPC:Chol:compound 1.40:11.15:38.95:48.50, N/P 30, Fluc-mRNA.
Where [5] appears, read: IV, liver, DMG-PEG2000:DSPC:Chol:compound 1.40:11.15:38.95:48.50, N/P 30.
[6] abbreviates: IV, liver, DMG-PEG2000:DSPC:Chol:compound 1.40:11.15:38.95:48.50, N/P 30, Fluc-mRNA.
The mark [7] stands for this setting: IV, lung, DMG-PEG2000:DSPC:Chol:compound 1.40:11.15:38.95:48.50, N/P 30.
Setting [8] is: IV, lung, DMG-PEG2000:DSPC:Chol:compound 1.40:11.15:38.95:48.50, N/P 30, Fluc-mRNA.
The mark [9] stands for this setting: IV, spleen, DMG-PEG2000:DSPC:Chol:compound 1.40:11.15:38.95:48.50, N/P 30.
Where [10] appears, read: IV, spleen, DMG-PEG2000:DSPC:Chol:compound 1.40:11.15:38.95:48.50, N/P 30, Fluc-mRNA.
Where [11] appears, read: DMG-PEG2000:DSPC:Chol:compound 1.40:11.15:38.95:48.50, N/P 30.
[12] abbreviates: DMG-PEG2000:DSPC:Chol:compound 1.00:10.00:33.00:56.00, N/P 42.
[13] abbreviates: DMG-PEG2000:DPPC:Chol:compound 1.40:11.15:38.95:48.50, N/P 30.
The mark [14] stands for this setting: mRNA LNP, 1.00:4.00:30.00:65.00, N/P 30, IV, liver.
The mark [15] stands for this setting: mRNA LNP, 1.00:4.00:30.00:65.00, N/P 30, IV, lung.
Where [16] appears, read: mRNA LNP, 1.00:4.00:30.00:65.00, N/P 30, IV, spleen.
Setting [17] is: mRNA LNP, 1.40:11.15:38.95:48.50, N/P 30, IV, liver.
Where [18] appears, read: mRNA LNP, 1.40:11.15:38.95:48.50, N/P 30, IV, lung.
[19] abbreviates: mRNA LNP, 1.40:11.15:38.95:48.50, N/P 30, IV, spleen.
[20] abbreviates: mRNA LNP, 1.00:4.00:30.00:65.00, N/P 30.
[21] abbreviates: mRNA LNP, 1.40:11.15:38.95:48.50, N/P 30.
The mark [22] stands for this setting: DMG-PEG2000:DSPC:Chol:compound 1.40:11.15:38.95:48.50, N/P 40.

Data on 6 molecules can be found in patent US12233161B1, “Lipids and lipid nanoparticle formulations” (LONGUIDE BIOPHARMA CORPORATION, priority 2024, dated 2025).

As to `CCCCCCCCCCOC(=O)C(O)CN(CCN(C)CCN(CC(O)C(=O)OCCCCCCCCCC)CC(O)C(=O)OCCCCCCCCCC)CC(O)C(=O)OCCCCCCCCCC` (stereo not shown) [Compound L0337], the IVIS in the data set on mice (setting [3]) is 3.70E+05; in the data set on mice (setting [4]), 2.05E+07; in the data set with mice (setting [6]) it was 2.66E+06; in the data set on mice (setting [8]), 9.51E+05; with mice (setting [10]) it was 2.87E+07. The “% of organ targeting” value in the data set with mice (setting [5]) is given as 8.23%; with mice (setting [7]), 2.94%; in the data set on mice (setting [9]), 88.83%. The molecule further displayed a PDI in data set [1] (setting [11]) of 0.2. Also, the “Particle size (nm)” value in data set [1] (setting [11]) is given as 102.07 nm. In addition, the “Zeta potential (mV)” value in data set [2] (setting [11]) is recorded as 28.07 mV.

For `CCCCCCCCCCCCNCC(O)CN(CCCCCN(C)CCCCCN(CC(O)CNCCCCCCCCCCCC)CC(O)C(=O)NCCCCCCCCCCCC)CC(O)C(=O)NCCCCCCCCCCCC` (stereo not shown) [Compound L0303], the IVIS with mice (setting [3]) worked out at 9.76E+05; in the data set on mice (IV, body, DMG-PEG2000:DSPC:Chol:compound 1.00:10.00:33.00:56.00, N/P 42, Fluc-mRNA), 2.40E+08; in the data set with mice (setting [4]) it was 1.33E+08; with mice (IV, liver, DMG-PEG2000:DSPC:Chol:compound 1.00:10.00:33.00:56.00, N/P 42, Fluc-mRNA) it was 2.70E+06; with mice (setting [6]), 7.60E+06; in the data set with mice (IV, lung, DMG-PEG2000:DSPC:Chol:compound 1.00:10.00:33.00:56.00, N/P 42, Fluc-mRNA), 4.17E+08. Also, the IVIS with mice (setting [8]) came out at 3.25E+08; with mice (IV, spleen, DMG-PEG2000:DSPC:Chol:compound 1.00:10.00:33.00:56.00, N/P 42, Fluc-mRNA) it was 2.70E+06; in the data set with mice (setting [10]), 5.38E+06. In addition, the “% of organ targeting” value with mice (IV, liver, DMG-PEG2000:DSPC:Chol:compound 1.00:10.00:33.00:56.00, N/P 42) was determined as 0.64%; in the data set with mice (setting [5]) it was 2.25%; with mice (IV, lung, DMG-PEG2000:DSPC:Chol:compound 1.00:10.00:33.00:56.00, N/P 42) it was 98.72%; with mice (setting [7]), 96.16%; in the data set with mice (IV, spleen, DMG-PEG2000:DSPC:Chol:compound 1.00:10.00:33.00:56.00, N/P 42) it was 0.64%; in the data set with mice (setting [9]), 1.59%. In addition, the PDI in data set [1] (setting [12]) was determined as 0.09; in data set [1] (setting [11]), 0.10. Besides, the “Particle size (nm)” value came out at 132.10 nm in data set [1] (setting [12]) and 122.57 nm in data set [1] (setting [11]). Moreover, in data set [2] (setting [11]), the “Zeta potential (mV)” value is 12.97 mV.

Take `CCCCCCCCCCCCN(C)C(=O)C(O)CN(C)CCCN(C)CCCN(C)CC(O)C(=O)N(C)CCCCCCCCCCCC` (stereo not shown) [Compound L0343]: the IVIS in the data set with mice (IM, DMG-PEG2000:DPPC:Chol:compound 1.40:11.15:38.95:48.50, N/P 30, Fluc-mRNA) was 9.39E+04; in the data set on mice (IV, organ not given, DMG-PEG2000:DPPC:Chol:compound 1.40:11.15:38.95:48.50, N/P 30, Fluc-mRNA) it was 2.20E+05. Further, in data set [1] (setting [13]), the PDI was found to be 0.24. The “Particle size (nm)” value in data set [1] (setting [13]) stood at 116.17 nm. Moreover, the “Zeta potential (mV)” value in data set [2] (setting [13]) is given as 4.33 mV.

As to `CCCCCCCCCCCCNC(=O)CCN(CCC(=O)NCCCCCCCCCCCC)CCN(C)CCN(CCC(=O)NCCCCCCCCCCCC)CCC(=O)NCCCCCCCCCCCC` [L0264-Control, reference compound], the “% of organ targeting” value in the data set on mice (setting [14]) is given as 0.58%; in the data set on mice (setting [15]) it was 86.18%; with mice (setting [16]) it was 13.25%; with mice (setting [17]) it was 1.25%; with mice (setting [18]) it was 74.91%; with mice (setting [19]), 23.85%. The IVIS was 1.67E+06 in the data set with mice (setting [14]); 2.49E+08 with mice (setting [15]); 3.82E+07 with mice (setting [16]); 1.37E+05 with mice (mRNA LNP, 1.40:11.15:38.95:48.50, N/P 30, IM, organ not given); 8.01E+05 in the data set with mice (setting [17]); 4.81E+07 in the data set on mice (setting [18]). Further, the IVIS in the data set on mice (setting [19]) was determined as 1.53E+07; with mice (mRNA LNP, DMG-PEG2000:DSPC:Chol:lipid 1.00:4.00:30.00:65.00, N/P 30, IV, body), 1.10E+08; with mice (mRNA LNP, DMG-PEG2000:DSPC:Chol:lipid 1.40:11.15:38.95:48.50, N/P 30, IV, body) it was 2.50E+07. The PDI in data set [1] (setting [20]) was 0.17; in data set [1] (setting [21]), 0.18. Further, the figures for the “Particle size (nm)” value in data set [1] (setting [20]) and in data set [1] (setting [21]) were 97.75 nm and 91.53 nm, respectively. Besides, the “Zeta potential (mV)” value was 13.40 mV in data set [2] (setting [20]) and 16.43 mV in data set [2] (setting [21]).

For the molecule `CCCCCCOC(C)OCCCCCCOC(=O)C(O)CN(CCCN(C)CCCN(CC(O)C(=O)OCCCCCCOC(C)OCCCCCC)CC(O)C(=O)OCCCCCCOC(C)OCCCCCC)CC(O)C(=O)OCCCCCCOC(C)OCCCCCC` (stereo not shown) [Compound L0316], the IVIS in the data set with mice (setting [3]) is given as 4.46E+06; in the data set on mice (IV, organ not given, DMG-PEG2000:DSPC:Chol:compound 1.40:11.15:38.95:48.50, N/P 30, Fluc-mRNA), 3.53E+08. Also, in data set [1] (setting [11]), the PDI was 0.12. In addition, in data set [1] (setting [11]), the “Particle size (nm)” value worked out at 125.9 nm. The “Zeta potential (mV)” value in data set [2] (setting [11]) was determined as 18.97 mV.

In the case of `CCCCCCCCCCCCNC(=O)C(O)CN(CCCN(CCCN(CC(O)C(=O)NCCCCCCCCCCCC)CC(O)C(=O)NCCCCCCCCCCCC)CC(O)C[N+](C)(C)C)CC(O)C(=O)NCCCCCCCCCCCC` (stereo not shown) [Compound L0302], the IVIS is listed as 6.87E+05 in the data set with mice (IM, DMG-PEG2000:DSPC:Chol:compound 1.40:11.15:38.95:48.50, N/P 40, Fluc-mRNA); 4.41E+06 in the data set on mice (IV, body, DMG-PEG2000:DSPC:Chol:compound 1.40:11.15:38.95:48.50, N/P 40, Fluc-mRNA); 2.05E+05 in the data set on mice (IV, liver, DMG-PEG2000:DSPC:Chol:compound 1.40:11.15:38.95:48.50, N/P 40, Fluc-mRNA); 1.52E+07 in the data set on mice (IV, lung, DMG-PEG2000:DSPC:Chol:compound 1.40:11.15:38.95:48.50, N/P 40, Fluc-mRNA); 2.47E+05 in the data set with mice (IV, spleen, DMG-PEG2000:DSPC:Chol:compound 1.40:11.15:38.95:48.50, N/P 40, Fluc-mRNA). Moreover, the “% of organ targeting” value was determined as 1.31% with mice (IV, liver, DMG-PEG2000:DSPC:Chol:compound 1.40:11.15:38.95:48.50, N/P 40); 97.12% with mice (IV, lung, DMG-PEG2000:DSPC:Chol:compound 1.40:11.15:38.95:48.50, N/P 40); 1.57% with mice (IV, spleen, DMG-PEG2000:DSPC:Chol:compound 1.40:11.15:38.95:48.50, N/P 40). The molecule further came in with a PDI in data set [1] (setting [22]) of 0.21. The “Particle size (nm)” value in data set [1] (setting [22]) amounted to 132.07 nm. Besides, the “Zeta potential (mV)” value in data set [2] (setting [22]) came to 16.93 mV.
